Experimental data: patent US9907783B2, “Methods of treating skin conditions using cyclolignan compounds” (m. Alphabet 2, L.L.C., priority 2013, dated 2018)

Test system: actinic keratoses
Assay: Randomized, blinded patient study of topical picropodophyllin solution for actinic keratoses (lesion count in treatment area)
Assay type: in vivo, patients
Settings: topical twice daily for 1 week
Procedure: To date, 56 patients have been studied to determine the efficacy of picropodophyllin in treating actinic keratoses. The patients were randomized into four groups, and the patients in each group were treated with a solution containing either 0.5%, 1.25%, or 2.0% picropodophyllin (w/v) in propylene glycol, or a placebo constituting only the vehicle propylene glycol. The picropodophyllin solution was prepared in 100% propylene glycol solution. The solutions were prepared aseptically following GMP protocols. The affected areas of the body variously included the scalp, face, arms, and legs. Without knowing which one of the four solutions they were applying, the subjects self-applied one of the solutions to the skin. After initial application, the subjects gently massaged the solutions into their skin. This was done twice daily for 1 week. Lesions (actinic keratosis) were palpated and visualized by a trained lesion counter who is a board certified dermatologist. The same investigator evaluated each subject at each visit for consistency. The subjects were evaluated at baseline, day 3, day 7, day 14, day 28, day 56 and day 90. Within the treatment area, the number of lesions were counted, regardless of their size. The change in the number of lesions (% decline from baseline) within the treatment area was calculated and the results are shown in the table below: […]

COc1cc([C@@H]2c3cc4c(cc3[C@H](O)[C@H]3COC(=O)[C@@H]23)OCO4)cc(OC)c1OC [PPP, picropodophyllin]
% Decline from Baseline (number of lesions in treatment area) (0.50% PPP w/v in propylene glycol, 28 days): −56^AB %
% Decline from Baseline (number of lesions in treatment area) (0.50% PPP w/v in propylene glycol, 56 days): −82^AB %
% Decline from Baseline (number of lesions in treatment area) (0.50% PPP w/v in propylene glycol, 90 days): −90^AB %
% Decline from Baseline (number of lesions in treatment area) (1.25% PPP w/v in propylene glycol, 28 days): −53^AB %
% Decline from Baseline (number of lesions in treatment area) (1.25% PPP w/v in propylene glycol, 56 days): −73^AB %
% Decline from Baseline (number of lesions in treatment area) (1.25% PPP w/v in propylene glycol, 90 days): −65^AB %
% Decline from Baseline (number of lesions in treatment area) (2.00% PPP w/v in propylene glycol, 28 days): −17%
% Decline from Baseline (number of lesions in treatment area) (2.00% PPP w/v in propylene glycol, 56 days): −55^AB %
% Decline from Baseline (number of lesions in treatment area) (2.00% PPP w/v in propylene glycol, 90 days): −84^AB %
